Where “and” joins values, the source holds several entries; their conditions need not be identical. Equal values may be shown once.
How the values were obtained:
[1] = system: CCL-119 cells; test: Alkaline comet assay; assay type: cell-based; conditions: 1 hour of exposure
Protocol: VCR was used as a positive control, and untreated cells were used as a negative control in this assay. The cells were incubated for 1 hour. After incubation, cells in each well were transferred to the Eppendorf tube to centrifuge for 5 minutes at 4°C by using a refrigerated microcentrifuge. The supernatant was removed, and the samples were washed with 1 mL of cold PBS. This process was repeated 3 times. After completion of the process, the supernatant was removed, and the pellet was left for a while on top of the ice while preparing the slide.
About 140 µL of normal melting agar (NMA) is pipetted on top of the fully frosted slide, and a cover slip is put on the agar for 5 minutes or until the agar fully solidifies. After that, the cover slip was removed, and 80 µL of low melting agar (LMA) was added to an Eppendorf tube containing the pellet of cells. The suspension was then transferred into a frosted slide with NMA agar. The cover slip was then put back on top of the frosted slide for 10 minutes or until dry. Next, the slide was transferred into a Coplin jar that contained lysis buffer solution and Triton X-100. The slides were then incubated at 4°C overnight. The slides were arranged on an electrophoresis tank filled with electrophoresis buffer for 20 minutes. Electrophoresis is done for another 20 minutes at 25 V with 300 mA. The slides were washed with a neutralization buffer solution 3 times at a 5-minute time interval. Finally, 30 µL of ethidium bromide (50 µg/mL) was added, and the slide was observed by using fluorescence microscopy (OLYMPUS BX51TR). CometScore software is used to analyze the DNA damage of the cells. The comet assay was performed under alkaline conditions (pH > 13) to detect both single- and double-strand DNA breaks.

[2] = system: WIL2-NS cells; parameters: method as in Rasli et al. (2023); conditions: non-cancerous cells; 24 hours of exposure; graph referred to earlier paper; ref Rasli et al. (2023); cited from earlier work
[3] = system: CCL-119 cells; test: MTT cytotoxicity assay; conditions: 24 hours; for cell viability at 0.31 µM / cell viability at 0.63 µM / cell viability at 1.25 µM / cell viability at 2.50 µM / cell viability at 5.00 µM: single replicates n1-n3, untreated = 100.00; for cell viability at 2.50 µM: 2.5 µM; for Selectivity Index (SI): IC50 WIL2-NS / IC50 CCL-119
Protocol: The T-acute lymphoblastic leukemia cell line, CCRF-CEM (CCL-119™), and a non-cancerous cell, WIL2-NS (CRL-8155™), were purchased from the American Type Culture Collection (ATCC). Both are suspension types of cells and were cultured in Roswell Park Memorial Institute Medium 1640 (RPMI-1640) (Sigma-Aldrich), supplemented with 10% Fetal Bovine Serum (FBS) (Capricorn Scientific) and 1% penicillin-streptomycin (Nacalai Tesque) to obtain the complete growth medium and were incubated at 37 °C with a 5% CO2 incubator. Both suspension cells are used for tests when the cells’ passage becomes passage 3–10 (maximum).
All stock solutions of the organotin (IV) dithiocarbamate compounds were prepared at 10 mM and dissolved in dimethyl sulphoxide (DMSO) (ChemAR®). The stock solutions were stored at 4°C; fresh dilutions were made by adding the RPMI-1640 medium before the experiment. The dilution is carried out using the serial dilution method to obtain the desired concentrations, which are 5 µM, 2.5 µM, 1.25 µM, 0.63 µM, 0.32 µM, and 0.16 µM in this study. Vincristine (VCR) is used as a positive control in this study.
Both CCL-119 and WIL2-NS cells were seeded in a 96-well plate at a final concentration of 5 x 10^5 cells/well and treated with 5 µM, 2.5 µM, 1.25 µM, 0.63 µM, 0.32 µM, and 0.16 µM of organotin (IV) dithiocarbamate compound for 24 hours at 37°C with 5% CO2. VCR was used as a positive control in this study, while cells without treatment were used as a negative control. After 24 hours of exposure, 20 µL of MTT (Merck) salt solution was added into each well and incubated for another 4 hours. The plate was wrapped with aluminium foil as MTT salt is light sensitive. After 4 hours, the purple crystal formazan was formed. All the medium was removed carefully from each well, and 200 µL DMSO was added to each well to dissolve the purple formazan crystal. Then, the plates were incubated for an additional 15 minutes. The results were analyzed and recorded using an ELISA microplate reader at 570 nm. The data was then plotted into a graph, and IC50 values were determined.
The selectivity index (SI) is determined by dividing the cytotoxic activity (IC50 value) of each compound on a non-cancerous cell line (WIL2-NS) by the leukemia cell line (CCL-119). […] WIL2- NS cell lines were selected as the comparator because it is a non-cancerous human B lymphoblast cell line, which is like CCL-119 (T-lymphoblastic leukemia), derived from lymphocytes. This choice ensures that comparisons are made between biologically similar cell types, minimizing variability that could arise from differences in tissue origin or lineage.

[4] = system: CCL-119 cells; test: Mode of cell death, Annexin V-FITC/PI staining (flow cytometry); assay type: cell-based; conditions: 24 hours at IC50; single replicates n1-n3
Protocol: The mode of cell death can be observed through the Annexin V-FITC/PI staining (BD, USA). The result of this test is either apoptosis or necrosis. […] VCR was used as a positive control, while cells without any treatment were used as a negative control. Then, the plate was incubated for 24 hours. After the incubation, the cell suspension in each well was collected into different Eppendorf tubes. The tubes were then centrifuged for 5 minutes at 1500 rpm at 4°C. After the centrifuge, the supernatant in the tubes was removed, and the cell pellets were washed twice with cold PBS. Then, centrifuge the tubes again and remove the supernatant. Next, 100 µL of Annexin V binding buffer was resuspended in each tube, and 5 µL Annexin V-FITC was pipetted into the tube to stain the cells for 15 minutes at room temperature, dark. After that, 5 µL of propidium iodide was piped into the tube for 5 minutes. The staining process is done in dark conditions. Lastly, the sample was transferred into the Falcon tube, and each tube was resuspended in 400 µL of Annexin V binding buffer. The sample was analyzed using a flow cytometer (BD FACS Canto II) within one hour.

[5] = system: CCL-119 cells; test: Cell cycle analysis (PI/RNase staining); assay type: cell-based; conditions: for cells in G0/G1 phase / cells in G2/M phase / cells in S phase: 24 hours at IC50, single replicates n1-n3
Protocol: The cells were cultured and seeded in a 6-well plate at 1 x 10^6 cells/mL. VCR was used as a positive control, and untreated cells were used as a negative control in this assay. The concentration of the compounds and VCR was followed by IC50 values that were taken from the MTT assay.
After 24 hours of incubation, all cells in the plate were transferred to the Eppendorf tube and centrifuged for 5 minutes at 4°C at 1500 rpm. After centrifuging, the supernatant was removed, and cells were washed with 500 µL cold PBS three times. The pellet was fixed by using 70% ethanol overnight at −20°C. Next, the samples were stained with 500 µL of PI/RNase staining buffer and incubated for 15 minutes. The samples were then transferred into Falcon tubes. The data was recorded using a flow cytometer and analyzed using ModFit LT software.

| SMILES | Tail moment ([1]; mean ± SEM) [A.U] | percentage of DNA intensity in the tail ([1]; mean ± SEM) [%] | % DNA intensity ([1]; single replicates n1-n3) | Tail moment ([1]; single replicates n1-n3) | IC50 [2] [µM] | cell viability at 0.31 µM [3] | cell viability at 0.63 µM [3] | cell viability at 1.25 µM [3] | cell viability at 2.50 µM [3] | cell viability at 5.00 µM [3] | Selectivity Index (SI) [3] | Early Apoptosis (Q4) [4] | Late Apoptosis (Q2) [4] | Necrosis (Q1) [4] | Viable (Q3) [4] | cells in G0/G1 phase [5] | cells in G2/M phase [5] | cells in S phase [5] | Phases of Cell Cycle Arrest ([5]; 24 hours at IC50 concentrations) |
| --- | --- | --- | --- | --- | --- | --- | --- | --- | --- | --- | --- | --- | --- | --- | --- | --- | --- | --- | --- |
| CC(C)N(C(=S)[S][Sn]([c]1ccccc1)([c]1ccccc1)[c]1ccccc1)C(C)C [ODTC 3, triphenyltin (IV) diisopropyl dithiocarbamate] | 22.25 ± 0.93 | 10.79 ± 0.72 | 9.366% and 11.3439% and 11.6624% | 20.8823 A.U and 21.8477 A.U and 24.0274 A.U | 0.75 ± 0.07 | 47.07% and 58.65% and 40.35% | 40.17% and 50.04% and 42.00% | 42.27% and 42.45% and 31.66% | 35.57% and 24.06% and 25.57% | 27.21% and 27.19% and 34.26% | 3.13 | 35.9% and 47.6% and 15.9% | 10.8% and 9% and 12% | 0.1% and 0% and 1.5% | 53.2% and 43.4% and 70.6% | 9.54% and 24.65% and 21.14% | 90.46% and 75.18% and 78.7% | 0% and 0.17% and 0.16% |  |
| C=CCN(CC=C)C(=S)[S][Sn]([c]1ccccc1)([c]1ccccc1)[c]1ccccc1 [ODTC 4, triphenyltin (IV) diallyl dithiocarbamate] | 25.83 ± 2.60 | 14.24 ± 0.94 | 12.9244% and 13.7623% and 16.0541% | 29.2637 A.U and 27.4848 A.U and 20.7304 A.U | 0.67 ± 0.14 | 30.40% and 42.75% and 41.34% | 24.51% and 37.25% and 30.23% | 26.67% and 22.56% and 24.61% | 25.39% and 26.40% and 25.55% | 20.16% and 12.33% and 18.27% | 4.19 | 41.4% and 46.5% and 27% | 15.2% and 19.2% and 9.9% | 0.2% and 0.1% | 43.2% and 34.2% and 63% | 45.09% and 46.03% and 29.64% | 8.07% and 7.1% and 0% | 46.84% and 46.87% and 70.36% | S phase |

— PMC12338828, “Evaluation of organotin (IV) dithiocarbamate compounds as potential anti-leukemia agents towards CCRF-CEM (CCL-119) cell line: Cytotoxic, apoptotic, cell cycle and genotoxic study” (PLOS One, 2025)
